Data as given in ChEMBL document CHEMBL5303304, “EUbOPEN Chemogenomics Library - IncuCyte” (2023).

Legend:
Format in all cases: toxicity, cell-based
[1] = test system: Fibroblast; experiment: Incucyte cell viability with human fibroblast; settings: 10 µM, compound concentration 10 uM
[2] = test system: HEK-293T; experiment: Incucyte cell viability with HEK293T; settings: human, 10 µM, compound concentration 10 uM
[3] = test system: U2OS; experiment: Incucyte cell viability with U2OS; settings: human, 10 µM, compound concentration 10 uM
Further: unitless GR value; below 1 slowed growth and below 0 cell loss.

Structure (SMILES) | Growth Rate ([1]; 12 h, replicate number 2) | Growth Rate ([1]; 24 h, replicate number 2) | Growth Rate ([2]; 0 h, replicate number 1) | Growth Rate ([2]; 0 h, replicate number 2) | Growth Rate ([3]; 0 h, replicate number 1) | Growth Rate ([3]; 0 h, replicate number 2) | Growth Rate ([3]; 6 h, replicate number 1) | Growth Rate ([3]; 12 h, replicate number 1) | Growth Rate ([3]; 12 h, replicate number 2) | Growth Rate ([3]; 18 h, replicate number 1) | Growth Rate ([3]; 18 h, replicate number 2) | Growth Rate ([3]; 24 h, replicate number 1) | Growth Rate ([3]; 24 h, replicate number 2) | Growth Rate ([1]; 0 h, replicate number 1) | Growth Rate ([1]; 6 h, replicate number 1) | Growth Rate ([1]; 18 h, replicate number 1) | Growth Rate ([1]; 24 h, replicate number 1) | Growth Rate ([1]; 18 h, replicate number 2) | Growth Rate ([3]; 6 h, replicate number 2) | Growth Rate ([1]; 0 h, replicate number 2) | further results
CC1CCN(C(=O)[C@H](CCn2cccc2C#N)NS(=O)(=O)c2cccc3[nH]ccc23)CC1 | 0.9 | 0.84 | -0.16 | 0.25 | 0.73 | 0.6 | 0.98 | 0.91 | 0.81 | 0.99 | 0.91 | 0.98 | 0.97 |  |  |  |  |  |  |  | Growth Rate ([2]; 12 h, replicate number 1): 0.92
CC(C)c1nc2c(c3c1[C@@H](c1ccc(C(F)(F)F)cc1)OC31CCOCC1)[C@@H](O)CC(C)(C)C2.Cl | 0.76 | 0.96 | 0.12 |  |  |  | 0.88 |  | 0.78 |  | 0.78 |  | 0.87 | -1 | -0.53 | 0.15 | 0.49 |  |  |  | Growth Rate ([1]; 12 h, replicate number 1): -0.05; Growth Rate ([2]; 6 h, replicate number 2): 0.11; Growth Rate ([2]; 12 h, replicate number 1): 0.73; Growth Rate ([2]; 12 h, replicate number 2): 0.61; Growth Rate ([2]; 18 h, replicate number 1): 0.63; Growth Rate ([2]; 18 h, replicate number 2): 0.97; Growth Rate ([2]; 24 h, replicate number 1): 0.78; Growth Rate ([2]; 24 h, replicate number 2): 0.8
C[C@@H]1C[C@H](C)CN(c2ncc(Cl)c(Nc3ccc4c(c3)cc(OC(C)(C)C(=O)O)c(=O)n4C)n2)C1 | 0.53 | 0.99 | 0.98 | 0.84 | 0.85 | -0.87 | 0.72 |  | 0.42 |  | 0.57 | 0.78 | 0.72 |  |  |  |  | 0.8 | -0.32 |  | 
CN1CCC(C#N)(NC(=O)[C@@H](NC(=O)N2CCOCC2)C(C)(C)C)CC1 |  |  | 0.92 | 0.91 |  | 0.61 |  | 0.98 |  | 0.98 | 1 | 0.92 |  |  | 0.5 | 0.98 | 0.99 | 0.75 | 0.92 | -0.99 | Growth Rate ([2]; 6 h, replicate number 1): 0.8
Cc1nc2cccnc2n2c(-c3cc(C(C)(C)O)ncc3Cl)nnc12 |  |  | 0.72 | -0.52 |  | 0.27 |  |  | 0.74 |  | 0.95 |  |  | -1 | 0.43 | 0.63 |  |  | 0.32 | -0.22 | 
N#Cc1ccc(C#CC[C@@H](C#N)NC(=O)[C@@H]2CCCCN2)cc1F | 1 |  | 0.68 |  | 0.67 | 0.31 | 0.57 | 0.92 | 0.73 |  | 0.85 |  | 0.86 | -1 | 0.62 | 0.73 | 0.74 | 0.9 |  | -0.9 | Growth Rate ([1]; 12 h, replicate number 1): 0.89; Growth Rate ([2]; 6 h, replicate number 2): 0.76; Growth Rate ([2]; 12 h, replicate number 2): 0.89
Cn1cnc(Cn2ccc3ccc(CNCc4[nH]c5ccccc5c4[C@@H]4NC(=O)c5ccc(O)cc54)cc32)c1 | 0.75 | 0.88 | 0.61 |  |  |  | 0.54 | 0.8 | 0.81 | 0.99 | 0.85 | 0.95 |  | -0.98 | 0.3 | 0.8 | 0.98 | 0.38 | 0.95 | 0.6 | Growth Rate ([1]; 6 h, replicate number 2): -0.87
CS(=O)(=O)O.C[C@H](NC(=O)c1cnc2n1[C@](C)(Cc1ccc(C#N)cc1)C(=O)N2c1cc(Cl)c(F)c(Cl)c1)C(=O)NC1(c2ccccn2)CC1 | 0.94 | 0.87 | 0.44 | 0.94 |  | -0.46 | 0.8 | 0.92 | 0.49 | 0.98 | 0.81 | 0.82 |  | -1 | 0.73 | 0.98 | 0.73 | 0.61 | 0.54 |  | Growth Rate ([1]; 6 h, replicate number 2): 0.85
